Reference: PMC10892041, “Vanadium Complexes with Thioanilide Derivatives of Amino Acids: Inhibition of Human Phosphatases and Specificity in Various Cell Models of Metabolic Disturbances” (Pharmaceuticals, 2024)

Tests used:
[1] = biological target: T1, PTP1B (Homo sapiens, UniProt P18031); experiment: Inhibition of human recombinant tyrosine phosphatase PTP1B (DiFMUP fluorescence); assay type: biochemical; conditions: 1 µM; control solvent only; SD did not exceed 6%
T1 construct: purchased Sigma-Aldrich
T1 sequence (P18031 1-435): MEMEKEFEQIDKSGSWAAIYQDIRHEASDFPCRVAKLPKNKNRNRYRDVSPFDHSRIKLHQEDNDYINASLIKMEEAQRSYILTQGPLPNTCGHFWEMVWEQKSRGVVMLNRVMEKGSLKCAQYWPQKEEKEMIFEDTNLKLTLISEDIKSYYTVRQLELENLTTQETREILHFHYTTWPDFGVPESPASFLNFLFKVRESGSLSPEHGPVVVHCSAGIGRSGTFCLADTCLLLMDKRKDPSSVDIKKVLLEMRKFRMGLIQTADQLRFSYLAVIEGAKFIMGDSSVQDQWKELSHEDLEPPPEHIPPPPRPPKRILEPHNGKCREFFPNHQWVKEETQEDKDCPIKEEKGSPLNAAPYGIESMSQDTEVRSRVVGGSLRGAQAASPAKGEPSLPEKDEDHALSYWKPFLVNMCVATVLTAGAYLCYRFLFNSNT
In short: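 Human recombinant PTP1B (final 50 ng/mL) in buffer of 25 mM MOPS, 50 mM NaCl, 1 mM DTT and 0.05% Tween-20 (pH 7.0) was dispensed onto test compound in black 384-well plates. After 10 min, DiFMUP was added to 0.1 mM. Plates were incubated 20 min at 23 °C and fluorescence read (ex 355, em 560 nm). Assays were run in triplicate, with inhibition relative to enzyme-plus-vehicle control and IC50 fitted in GraphPad Prism.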

[2] = biological target: T2, LAR (Homo sapiens, UniProt P10586); experiment: Inhibition of human recombinant tyrosine phosphatase LAR (DiFMUP fluorescence); assay type: biochemical; conditions: 1 µM; control solvent only; SD did not exceed 6%
T2 sequence (P10586 1352-1607 limits assumed): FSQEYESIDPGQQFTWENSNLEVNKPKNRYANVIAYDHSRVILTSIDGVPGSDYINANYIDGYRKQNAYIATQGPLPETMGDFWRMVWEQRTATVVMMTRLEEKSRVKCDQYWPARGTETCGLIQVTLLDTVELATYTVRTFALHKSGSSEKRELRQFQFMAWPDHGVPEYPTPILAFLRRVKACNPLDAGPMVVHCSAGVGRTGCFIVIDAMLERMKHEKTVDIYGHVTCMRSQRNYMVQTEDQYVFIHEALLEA
In short: (§1)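 Human recombinant phosphatases (SHP1 400 ng/mL, SHP2 50 ng/mL, LAR 5 ng/mL final) were pre-incubated 10 min with compound in 25 mM MOPS pH 7.0, 50 mM NaCl, 1 mM DTT, 0.05% Tween-20. DiFMUP (0.1 mM final) was added for 20 min at 23 °C and fluorescence read at 355/560 nm. Screening used 1 µM compound (% inhibition vs vehicle); IC50 also reported.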

[3] = test system: adipocytes 3T3-L1; design: method as in doi:10.1016/j.poly.2020.114589; conditions: 50 µM; previously published by the authors; cited from earlier work
[4] = biological target: T3, SHP2 (Homo sapiens, UniProt Q06124); experiment: Inhibition of human recombinant tyrosine phosphatase SHP2 (DiFMUP fluorescence); assay type: biochemical; conditions: 1 µM; control solvent only; SD did not exceed 6%
T3 construct: purchased Sigma-Aldrich
T3 sequence (Q06124 1-593): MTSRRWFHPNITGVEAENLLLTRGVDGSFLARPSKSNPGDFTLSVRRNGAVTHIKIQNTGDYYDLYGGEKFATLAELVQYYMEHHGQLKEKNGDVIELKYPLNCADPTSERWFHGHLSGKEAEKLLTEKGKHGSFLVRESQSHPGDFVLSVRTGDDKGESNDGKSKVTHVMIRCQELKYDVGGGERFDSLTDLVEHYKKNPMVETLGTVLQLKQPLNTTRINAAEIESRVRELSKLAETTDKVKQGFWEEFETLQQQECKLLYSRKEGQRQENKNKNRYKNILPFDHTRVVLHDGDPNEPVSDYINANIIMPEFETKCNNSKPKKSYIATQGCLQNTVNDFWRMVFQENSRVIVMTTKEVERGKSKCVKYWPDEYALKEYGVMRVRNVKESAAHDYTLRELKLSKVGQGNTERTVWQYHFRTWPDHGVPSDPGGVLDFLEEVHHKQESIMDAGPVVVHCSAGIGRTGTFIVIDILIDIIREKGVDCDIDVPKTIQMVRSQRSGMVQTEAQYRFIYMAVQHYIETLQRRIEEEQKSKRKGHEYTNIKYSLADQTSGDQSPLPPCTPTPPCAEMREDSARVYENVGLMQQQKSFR
In short: as §1

[5] = biological target: T4, SHP1 (Homo sapiens, UniProt P29350); experiment: Inhibition of human recombinant tyrosine phosphatase SHP1 (DiFMUP fluorescence); assay type: biochemical; conditions: 1 µM; control solvent only; SD did not exceed 6%
T4 construct: purchased Sigma-Aldrich
T4 sequence (P29350 whole entry): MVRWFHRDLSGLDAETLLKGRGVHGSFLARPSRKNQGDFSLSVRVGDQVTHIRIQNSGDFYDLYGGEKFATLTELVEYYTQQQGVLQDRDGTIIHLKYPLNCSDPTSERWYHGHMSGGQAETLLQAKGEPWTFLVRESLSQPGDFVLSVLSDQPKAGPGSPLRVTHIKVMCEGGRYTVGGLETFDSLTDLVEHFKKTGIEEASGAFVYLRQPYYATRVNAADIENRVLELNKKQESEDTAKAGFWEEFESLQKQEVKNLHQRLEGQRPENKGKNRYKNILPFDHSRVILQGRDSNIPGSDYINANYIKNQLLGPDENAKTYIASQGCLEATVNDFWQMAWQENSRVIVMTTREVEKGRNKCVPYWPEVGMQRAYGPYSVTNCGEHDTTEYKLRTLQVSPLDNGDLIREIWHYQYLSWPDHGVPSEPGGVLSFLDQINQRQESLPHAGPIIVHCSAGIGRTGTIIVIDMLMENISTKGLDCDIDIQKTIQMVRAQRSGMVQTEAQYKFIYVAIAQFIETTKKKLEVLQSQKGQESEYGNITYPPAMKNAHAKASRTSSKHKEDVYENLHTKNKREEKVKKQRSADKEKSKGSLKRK
In short: as §1

[6] = test system: hepatocytes HepG2; conditions: 1 mM
Method: Hepatocytes HepG2, myocytes C2C12 (after 8 days differentiation), and adipocytes 3T3-L1 (after 11 days of differentiation) were cultured and maintained as described in the section above but pleated on a ScintiPlate TC 96-well microplate coated with a solid-phase scintillator (PerkinElmer). Hepatocytes and myocytes were washed, and culture medium was changed for medium with 0.5% BSA instead of serum. After 24 h incubation, the tested complexes were added. After 2 h incubation at 37 °C in 5% CO2, the medium was changed to low-glucose medium (1000 mg/L), and the tested complexes were added again, with further incubation for 4 h being conducted. […] Wortmannin at a final concentration of 200 nM (Sigma-Aldrich ) was used as a negative control. After that, cells were washed three times with cold KRB, and cytochalasin B (10 mM final) was added for several wells as a ‘‘no uptake” control, which proceeded as shown below.
For cells proceeded as above, 2-deoxy-D-[U-14C]-glucose (250–350 mCi/mmol, NEC720A, PerkinElmer) solution in KRB with a total activity of 0.03 mCi was added to each well. […] The radioactivity of samples was measured in a scintillation counter, MicroBeta Trilux 1450 (PerkinElmer). Non-specific radioactivity was subtracted from each result (cpm). […] The final results were expressed as percent of the control that contained solvent only instead of the tested compound.

[7] = test system: hepatocytes HepG2; experiment: Inhibition of hepatic gluconeogenesis (glucose synthesis); conditions: known inhibitors of gluconeogenesis; concentration not given

Structure (SMILES) | Inhibition of PTP1B, percentage of inhibition of the control [1] [%] | Inhibition of LAR, percentage of inhibition of the control [2] [%] | Transport of [14C]-deoxy-D-glucose into 3T3-L1 adipocytes, % of control [3] | Inhibition of SHP2, percentage of inhibition of the control [4] [%] | Inhibition of SHP1, percentage of inhibition of the control [5] [%] | Potentiation of [14C]-deoxy-D-glucose transport to hyperinsulinemia-induced insulin-resistant hepatocytes [6] | Inhibition of glucose synthesis by hepatocytes, experimental control compounds [7]
O=C(NN=Cc1cc(Br)ccc1[O][V]1[O]C(c2ccccc2O)=NN=Cc2cc(Br)ccc2[O]1)c1ccccc1O [VC029, [V(L7)(HL7)]] | 31 | 25 | statistically significant activity | 68 | 62 | – | –
CN(C)C(=N)N=C(N)N [metformin] | – | – | – | – | – | did not potentiate | showed inhibition of glucose synthesis
